Assay results reported in patent US20090270407A1, “FUNGICIDAL ISOXAZOLIDINES” (E. I. DU PONT DE NEMOURS AND COMPANY, priority 2008, published 2009).
Where two headings read alike, the source gives them in different places. Marks after values point to notes of the source that are not given here.

Columns and labels:
Details in all cases: 100 = 100 % disease control, 0 = no disease control relative to controls
Septoria tritici = test: Test D: wheat leaf blotch, preventive spray on wheat seedlings, visual disease rating; type: in vivo
From the text: A dash (−) indicates no test results.

Phytophthora infestans = type: in vivo
[1] = test system: Puccinia recondita f. sp. tritici; test: Test B: wheat leaf rust, preventive spray on wheat seedlings, visual disease rating
From the text: (§1) General protocol for preparing test suspensions for Tests A-I: The test compounds were first dissolved in acetone in an amount equal to 3% of the final volume and then suspended at the desired concentration (in ppm) in acetone and purified water (50/50 mix) containing 250 ppm of the surfactant Trem® 014 (polyhydric alcohol esters). The resulting test suspensions were then used in Tests A-I. Spraying a 200 ppm test suspension to the point of run-off on the test plants was the equivalent of a rate of 500 g/ha.
The test suspension was sprayed to the point of run-off on wheat seedlings. The following day the seedlings were inoculated with a spore suspension of Puccinia recondita f. sp. tritici (the causal agent of wheat leaf rust) and incubated in a saturated atmosphere at 20° C. for 24 h, and then moved to a growth chamber at 20° C. for 7 days, after which time visual disease ratings were made.
(§2) All results are for 200 ppm except where followed by “*” which indicates 40 ppm.

Botrytis cinerea = test: Test E: tomato Botrytis, preventive spray on tomato seedlings, visual disease rating
From the text: as §1
The test suspension was sprayed to the point of run-off on tomato seedlings. The following day the seedlings were inoculated with a spore suspension of Botrytis cinerea (the causal agent of tomato Botrytis) and incubated in saturated atmosphere at 20° C. for 48 h, and then moved to a growth chamber at 24° C. for 3 additional days, after which time visual disease ratings were made.
as §2

Septoria nodorum = test: Test C: wheat glume blotch, preventive spray on wheat seedlings, visual disease rating
Procedure: (An asterisk “*” next to the rating value indicates a 40 ppm test suspension.)
The test suspension was sprayed to the point of run-off on wheat seedlings. The following day the seedlings were inoculated with a spore suspension of Septoria nodorum (the causal agent of wheat glume blotch) and incubated in a saturated atmosphere at 20° C. for 48 h, and then moved to a growth chamber at 20° C. for 7 days, after which time visual disease ratings were made.
(§3) A dash (−) indicates no test results. All results are for 200 ppm except where followed by “*” which indicates 40 ppm.

[2] = test system: Erysiphe graminis f. sp. tritici; test: Test A: wheat powdery mildew, preventive spray on wheat seedlings, visual disease rating
From the text: (§4) General protocol for preparing test suspensions for Tests A-I: The test compounds were first dissolved in acetone in an amount equal to 3% of the final volume and then suspended at the desired concentration (in ppm) in acetone and purified water (50/50 mix) containing 250 ppm of the surfactant Trem® 014 (polyhydric alcohol esters). The resulting test suspensions were then used in Tests A-I. Spraying a 200 ppm test suspension to the point of run-off on the test plants was the equivalent of a rate of 500 g/ha. (An asterisk “*” next to the rating value indicates a 40 ppm test suspension.)
The test suspension was sprayed to the point of run-off on wheat seedlings. The following day the seedlings were inoculated with a spore dust of Erysiphe graminis f. sp. tritici (the causal agent of wheat powdery mildew) and incubated in a growth chamber at 20° C. for 8 days, after which time visual disease ratings were made.

Alternaria solani = test: Test F: tomato early blight, preventive spray on tomato seedlings, visual disease rating
Plasmopara viticola = test: Test I: grape downy mildew, spray on grape seedlings after inoculation, visual disease rating
From the text: as §4
Grape seedlings were inoculated with a spore suspension of Plasmopara viticola (the causal agent of grape downy mildew) and incubated in a saturated atmosphere at 20° C. for 24 h. After a short drying period, the test suspension was sprayed to the point of run-off on the grape seedlings and then moved to a growth chamber at 20° C. for 6 days, after which time the test units were placed back into a saturated atmosphere at 20° C. for 24 h. Upon removal, visual disease ratings were made.
as §2

Rhizoctonia oryzae = test: Test G: turf brown patch, preventive spray on creeping bent grass seedlings, visual disease rating
Procedure: The test suspension was sprayed to the point of run-off on creeping bent grass seedlings. The following day the seedlings were inoculated with a spore suspension of Rhizoctonia oryzae (the causal agent of turf brown patch) and incubated in a saturated atmosphere at 27° C. for 48 h, and then moved to a growth chamber at 27° C. for 3 days, after which time visual disease ratings were made.
as §3

Row | Structure (SMILES) | Test D disease control rating (Septoria tritici; 40 ppm (marked *)) | Test H disease control rating (Phytophthora infestans; 40 ppm (marked *)) | Test B disease control rating ([1]; 40 ppm (marked *)) | Test E disease control rating (Botrytis cinerea; 40 ppm (marked *)) | Test C disease control rating (Septoria nodorum; 40 ppm (marked *)) | Test A disease control rating ([2]; 40 ppm (marked *)) | Test F disease control rating (Alternaria solani; 40 ppm (marked *)) | Test I disease control rating (Plasmopara viticola; 40 ppm (marked *)) | Test G disease control rating (Rhizoctonia oryzae; 40 ppm (marked *)) | Test D disease control rating (Septoria tritici; 200 ppm) | Test H disease control rating (Phytophthora infestans; 200 ppm) | Test B disease control rating ([1]; 200 ppm) | Test E disease control rating (Botrytis cinerea; 200 ppm) | Test C disease control rating (Septoria nodorum; 200 ppm) | Test A disease control rating ([2]; 200 ppm) | Test F disease control rating (Alternaria solani; 200 ppm) | Test I disease control rating (Plasmopara viticola; 200 ppm) | Test G disease control rating (Rhizoctonia oryzae; 200 ppm)
1 | CN1O[C@@](C)(c2cccnc2)C[C@@H]1c1ccc(-n2ccc(C(F)(F)F)n2)cc1 (relative stereo) [Compound 36, rel-3-[(3R,5R)-2,5-dimethyl-3-[4-[3-(trifluoromethyl)-1H-pyrazol-1-yl]phenyl]-5-isoxazolidinyl]pyridine] | 73* % | 0* % | 0* % | 22* % | 0* % | 79* % | 23* % | 0* % | 7* % |  |  |  |  |  |  |  |  | 
2 | CN1OC(c2cccnc2)(C(F)(F)F)CC1c1ccc(Br)cc1 (racemic) [Compound 29] | 76* % | 0* % | 0* % | 0* % | 67* % | 98* % | 83* % | 0* % | 0* % |  |  |  |  |  |  |  |  | 
3 | CN1OC(C)(c2cccnc2)CC1c1ccc(-c2ccc(OC(F)(F)F)cc2)cc1 (racemic) [Compound 18] | 58* % | 0* % | 0* % | 0* % | 0* % | 0* % | 7* % | 0* % | 0* % |  |  |  |  |  |  |  |  | 
4 | CN1OC(c2cccnc2)(C(F)(F)F)CC1c1ccc(Br)cc1 (racemic) [Compound 30] |  |  |  |  |  |  |  |  |  | 83% | 0% | 89% | 0% | 92% | 100% | 0% | 58% | 0%
5 | CN1OC(C)(c2cccnc2)CC1c1ccc(Cl)c(Cl)c1 (stereo not drawn) [Compound 6] |  |  |  |  |  |  |  |  |  |  | 0% | 0% | 0% | 0% | 99% | 0% | 17% | 0%
6 | CN1OC(C)(c2cccnc2)CC1c1ccc(C(C)(C)C)cc1 (racemic) [Compound 7] |  |  |  |  |  |  |  |  |  |  | 0% | 34% | 99% | 69% | 99% | 40% | 0% | 0%
7 | CN1OC(C)(c2cccnc2)CC1c1ccc(C(C)(C)C)cc1 (racemic) [Compound 8] |  |  |  |  |  |  |  |  |  |  | 0% | 69% | 56% | 40% | 99% | 0% | 0% | 0%
8 | CN1O[C@](C)(c2cccnc2)C[C@@H]1c1ccc(Cl)cc1 (relative stereo) [Compound 1, rel-3-[(3R,5S)-3-(4-chlorophenyl)-2,5-dimethyl-5-isoxazolidinyl]pyridine] |  |  |  |  |  |  |  |  |  |  | 0% | 0% | 83% | 100% | 97% | 0% | 0% | 0%
9 | CN1OC(C)(c2cccnc2)CC1c1ccc(-c2ccccc2)cc1 (racemic) [Compound 11] |  |  |  |  |  |  |  |  |  |  | 0% | 91% | 99% | 97% | 99% | 26% | 0% | 0%
10 | CN1OC(C)(c2cccnc2)CC1c1ccc(Br)cc1 (racemic) [Compound 4] |  |  |  |  |  |  |  |  |  |  | 0% | 32% | 80% | 100% | 90% | 0% | 0% | 0%
11 | CN1OC(C)(c2cccnc2)CC1c1ccc(Oc2ccccc2)cc1 (racemic) [Compound 9] |  |  |  |  |  |  |  |  |  |  | 17% | 82% | 99% | 95% | 99% | 78% | 0% | 0%
12 | CN1O[C@@](C)(c2cccnc2)C[C@@H]1c1ccc(Cl)cc1 (relative stereo) [Compound 2, rel-3-[(3R,5R)-3-(4-chlorophenyl)-2,5-dimethyl-5-isoxazolidinyl]pyridine] |  |  |  |  |  |  |  |  |  |  | 0% | 0% | 0% | 99% | 72% | 0% | 17% | 0%
13 | CN1OC(C)(c2cccnc2)CC1c1ccc(Cl)c(Cl)c1 (stereo not drawn) [Compound 5] |  |  |  |  |  |  |  |  |  |  | 0% | 0% | 91% | 0% | 98% | 51% | 0% | 0%
14 | CN1OC(C)(c2cccnc2)CC1c1ccc(-c2ccccc2)cc1 (racemic) [Compound 12] |  |  |  |  |  |  |  |  |  |  | 0% | 74% | 29% | 82% | 99% | 0% | 0% | 0%
15 | CN1OC(C)(c2cccnc2)CC1c1ccc(Oc2ccccc2)cc1 (racemic) [Compound 10] |  |  |  |  |  |  |  |  |  |  | 0% | 82% | 98% | 98% | 93% | 0% | 0% | 0%
16 | CN1O[C@](C)(c2cccnc2)C[C@@H]1c1ccc(-n2ccc(C(F)(F)F)n2)cc1 (relative stereo) [Compound 35, rel-3-[(3R,5S)-2,5-dimethyl-3-[4-[3-(trifluoromethyl)-1H-pyrazol-1-yl]phenyl]-5-isoxazolidinyl]pyridine] | 99* % | 0* % | 100* % | 99* % | 100* % | 100* % | 98* % | 0* % |  |  |  |  |  |  |  |  |  | 
